Test results reported in US12404283B2, “c-MYC mRNA translation modulators and uses thereof in the treatment of cancer” (Anima Biotech Inc., priority 2022, dated 2025).

Tested on: c-Myc
Experiment: c-Myc immunofluorescence assay
Assay type: cell-based, human
Conditions: A549 cells, 24 hours treatment, anti-c-Myc immunofluorescence
How it was run: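 High-content imaging (20×) of PFA-fixed A549 cells immunostained for c-Myc with DAPI nuclei, after 24 h compound treatment at increasing concentrations. Per-cell c-Myc signal in identified cell regions was plotted against dose and fitted by logistic regression to give EC50.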

SMILES | Myc Efficacy (−LogEC50)
CNC(=O)c1ccc(-c2cn3c(n2)sc2cc(C(=O)NCC4CCC(=O)N4C)ccc23)cc1 (centres unmarked) [compound 254, N-((1-methyl-5-oxopyrrolidin-2-yl)methyl) 2-(4-(methylcarbamoyl)phenyl) benzo[d]imidazo[2,1-b]thiazole-7-carboxamide] | + (+ >3 and <5)
CNC(=O)c1ccc(-c2cn3c(n2)sc2cc(C(=O)NCC(=O)NCC(F)(F)F)ccc23)cc1 [compound 255, 2-(4-(methylcarbamoyl)phenyl)-N-(2-oxo-2-((2,2,2-trifluoroethyl)amino)ethyl) benzo[d]imidazo[2,1-b]thiazole-7-carboxamide] | − (− ≤3)
CNC(=O)c1ccc(-c2cn3c(n2)sc2cc(C(=O)NC[C@H](O)c4ccccc4)ccc23)cc1 [compound 256, (R)-N-(2-hydroxy-2-phenylethyl)-2-(4-(methylcarbamoyl)phenyl) benzo[d]imidazo[2,1-b]thiazole-7-carboxamide] | − (− ≤3)
CNC(=O)c1ccc(-c2cn3c(n2)sc2cc(C(=O)NCCC4CCCN4C)ccc23)cc1 (centres unmarked) [compound 257, 2-(4-(methylcarbamoyl)phenyl)-N-(2-(1-methylpyrrolidin-2-yl)ethyl)benzo[d]imidazo [2,1-b]thiazole-7-carboxamide] | ++ (++ ≥5 and <6)
CNC(=O)c1ccc(-c2cn3c(n2)sc2cc(C(=O)NC4CC(O)C4(C)C)ccc23)cc1 (centres unmarked) [compound 258, N-(3-hydroxy-2,2-dimethylcyclobutyl)-2-(4-(methylcarbamoyl)phenyl) benzo[d]imidazo[2,1-b]thiazole-7-carboxamide] | + (+ >3 and <5)
CNC(=O)c1ccc(-c2cn3c(n2)sc2cc(C(=O)NCC4CC4(F)F)ccc23)cc1 (centres unmarked) [compound 259, N-((2,2-difluorocyclopropyl)methyl)-2-(4-(methylcarbamoyl)phenyl) benzo[d]imidazo[2,1-b]thiazole-7-carboxamide] | + (+ >3 and <5)
CNC(=O)c1ccc(-c2cn3c(n2)sc2cc(C(=O)NCCC4(O)CCCC4)ccc23)cc1 [compound 260, N-(2-(1-hydroxycyclopentyl)ethyl)-2-(4-(methylcarbamoyl)phenyl) benzo[d]imidazo[2,1-b]thiazole-7-carboxamide] | − (− ≤3)
CNC(=O)c1ccc(-c2cn3c(n2)sc2cc(C(=O)NCC4(C)CC4)ccc23)cc1 [compound 261, 2-(4-(methylcarbamoyl)phenyl) N-((1-methylcyclopropyl)methyl) benzo[d]imidazo[2,1-b]thiazole-7-carboxamide] | − (− ≤3)
CNC(=O)c1ccc(-c2cn3c(n2)sc2cc(C(=O)NCCN4CCCCC4C)ccc23)cc1 (centres unmarked) [compound 262, 2-(4-(methylcarbamoyl)phenyl) N-(2-(2-methylpiperidin-1-yl)ethyl)benzo[d]imidazo [2,1-b]thiazole-7-carboxamide] | + (+ >3 and <5)
CNC(=O)c1ccc(-c2cn3c(n2)sc2cc(C(=O)N[C@H]4c5ccccc5C[C@H]4O)ccc23)cc1 [compound 263, N-((1S,2R)-2-hydroxy-2,3-dihydro-1H-inden-1-yl)-2-(4-(methylcarbamoyl)phenyl) benzo[d]imidazo[2,1-b]thiazole-7-carboxamide] | − (− ≤3)
CCCN1CCC(NC(=O)c2ccc3c(c2)sc2nc(-c4ccc(C(=O)NC)cc4)cn23)CC1 [compound 264, 2-(4-(methylcarbamoyl)phenyl)-N-(1-propylpiperidin-4-yl)benzo[d]imidazo[2,1-b]thiazole-7-carboxamide] | +++ (+++ ≥6)
Cc1cccc(-c2cn3c(n2)sc2cc(NC(=O)N4CCNCC4)ccc23)c1 [compound 265, N-(2-(m-tolyl)benzo[d]imidazo[2,1-b]thiazol-7-yl)piperazine-1-carboxamide] | + (+ >3 and <5)
CCN(CC)CCCC(=O)Nc1ccc2c(c1)sc1nc(-c3cccc(C)c3)cn12 [compound 266, 4-(diethylamino)-N-(2-(m-tolyl)benzo[d]imidazo[2,1-b]thiazol-7-yl)butanamide] | + (+ >3 and <5)
CCN(CC)CCNC(=O)Nc1ccc2c(c1)sc1nc(-c3cccc(C)c3)cn12 [compound 267, 1-(2-(diethylamino)ethyl)-3-(2-(m-tolyl)benzo[d]imidazo[2,1-b]thiazol-7-yl)urea] | + (+ >3 and <5)
CCN(CC)CCCNC(=O)c1ccc2c(c1)sc1nc(-c3ccc(-c4ncc[nH]4)cc3)cn12 [compound 268, 2-(4-(1H-imidazol-2-yl)phenyl)-N-(3-(diethylamino)propyl) benzo[d]imidazo[2,1-b] thiazole-7-carboxamide] | + (+ >3 and <5)
CNC(=O)c1ccc(-c2cn3c(n2)sc2cc(C(=O)NC4CC(N(C)C)C4)ccc23)cc1 (centres unmarked) [compound 269, N-(3-(dimethylamino)cyclobutyl)-2-(4-(methylcarbamoyl)phenyl) benzo[d]imidazo[2,1-b]thiazole-7-carboxamide] | + (+ >3 and <5)

SMILES | Myc Efficacy (−LogEC50)
CNC(=O)c1ccc(-c2cn3c(n2)sc2cc(C(=O)NC4CCCC(N)C4)ccc23)cc1 (centres unmarked) [compound 270, N-(3-aminocyclohexyl)-2-(4-(methylcarbamoyl)phenyl) benzo[d]imidazo[2,1-b]thiazole-7-carboxamide] | + (+ >3 and <5)
CNC(=O)c1ccc(-c2cn3c(n2)sc2cc(C(=O)NCCCN4CCCC4CO)ccc23)cc1 (centres unmarked) [compound 271, N-(3-(2-(hydroxymethyl)pyrrolidin-1-yl)propyl)-2-(4-(methylcarbamoyl)phenyl) benzo[d]imidazo[2,1-b]thiazole-7-carboxamide] | + (+ >3 and <5)
CNC(=O)c1ccc(-c2cn3c(n2)sc2cc(C(=O)NCC4CC5(CNC5)C4)ccc23)cc1 [compound 272, N-((2-azaspiro[3.3]heptan-6-yl)methyl)-2-(4-(methylcarbamoyl)phenyl) benzo[d]imidazo[2,1-b]thiazole-7-carboxamide] | − (− ≤3)
CNC(=O)c1ccc(-c2cn3c(n2)sc2cc(C(=O)NC[C@H]4CC[C@H](O)CC4)ccc23)cc1 [compound 273, N-(((1r,4r)-4-hydroxycyclohexyl)methyl)-2-(4-(methylcarbamoyl)phenyl) benzo[d]imidazo[2,1-b]thiazole-7-carboxamide] | − (− ≤3)
CNC(=O)c1ccc(-c2cn3c(n2)sc2cc(C(=O)N[C@H](C)C4CC4)ccc23)cc1 [compound 274, (R)-N-(1-cyclopropylethyl)-2-(4-(methylcarbamoyl)phenyl) benzo[d]imidazo[2,1-b]thiazole-7-carboxamide] | + (+ >3 and <5)
CNC(=O)c1ccc(-c2cn3c(n2)sc2cc(C(=O)NCc4ccccc4)ccc23)cc1 [compound 275, N-benzyl-2-(4-(methylcarbamoyl)phenyl) benzo[d]imidazo[2,1-b]thiazole-7-carboxamide] | − (− ≤3)
CCN(CC)CCCNC(=O)c1ccc2c(c1)sc1nc(-c3ccc(CN(C)C)cc3)cn12 [compound 276, N-(3-(diethylamino)propyl)-2-(4-((dimethylamino)methyl)phenyl)benzo[d]imidazo[2,1-b]thiazole-7-carboxamide] | +++ (+++ ≥6)
CCN(CC)CCCNC(=O)c1ccc2c(c1)sc1nc(-c3ccc(CO)cc3)cn12 [compound 277, N-(3-(diethylamino)propyl)-2-(4-(hydroxymethyl)phenyl) benzo[d]imidazo[2,1-b] thiazole-7-carboxamide] | ++ (++ ≥5 and <6)
CNC(=O)c1ccc(-c2cn3c(n2)sc2cc(C(=O)NCC4(C)CNC4)ccc23)cc1 [compound 278, N-((3-methylazetidin-3-yl)methyl)-2-(4-(methylcarbamoyl)phenyl) benzo[d]imidazo[2,1-b]thiazole-7-carboxamide] | − (− ≤3)
CNC(=O)c1ccc(-c2cn3c(n2)sc2cc(C(=O)NCC4CC5(CC5)CN4)ccc23)cc1 (centres unmarked) [compound 279, N-((5-azaspiro[2.4]heptan-6-yl)methyl)-2-(4-(methylcarbamoyl)phenyl) benzo[d]imidazo[2,1-b]thiazole-7-carboxamide] | − (− ≤3)
CNC(=O)c1ccc(-c2cn3c(n2)sc2cc(C(=O)NC4CC(C)C4)ccc23)cc1 (centres unmarked) [compound 280, 2-(4-(methylcarbamoyl)phenyl)-N-(3-methylcyclobutyl)benzo[d] imidazo[2,1-b]thiazole-7-carboxamide] | ++ (++ ≥5 and <6)
CNC(=O)c1ccc(-c2cn3c(n2)sc2cc(C(=O)NCCCN4CCCCC4)ccc23)c(F)c1 [compound 281, 2-(2-fluoro-4-(methylcarbamoyl)phenyl)-N-(3-(piperidin-1-yl)propyl)benzo[d]imidazo [2,1-b]thiazole-7-carboxamide] | ++ (++ ≥5 and <6)
CCNC(=O)c1ccc(-c2cn3c(n2)sc2cc(C(=O)NCCCN(CC)CC)ccc23)cc1 [compound 282, N-(3-(diethylamino)propyl)-2-(4-(ethylcarbamoyl)phenyl) benzo[d]imidazo[2,1-b]thiazole-7-carboxamide] | + (+ >3 and <5)
CCN(CC)CCCNC(=O)c1ccc2c(c1)sc1nc(-c3ccc(C(=O)NC(C)C)cc3)cn12 [compound 283, N-(3-(diethylamino)propyl)-2-(4-(isopropylcarbamoyl)phenyl) benzo[d]imidazo[2,1-b]thiazole-7-carboxamide] | + (+ >3 and <5)
CCN(CC)CCCNC(=O)c1ccc2c(c1)sc1nc(-c3ccc(C(=O)NCCOC)cc3)cn12 [compound 284, N-(3-(diethylamino)propyl)-2-(4-((2-methoxyethyl)carbamoyl)phenyl)benzo[d]imidazo[2,1-b]thiazole-7-carboxamide] | + (+ >3 and <5)
CCN(CC)CCCNC(=O)c1ccc2c(c1)sc1nc(-c3ccc(C(=O)NCCO)cc3)cn12 [compound 285, N-(3-(diethylamino)propyl)-2-(4-((2-hydroxyethyl)carbamoyl)phenyl)benzo[d]imidazo[2,1-b]thiazole-7-carboxamide] | + (+ >3 and <5)
